# According to US12083100B1, “Antiparasitic isoxazoline compounds, long-acting injectable formulations comprising them, methods and uses thereof” (BOEHRINGER INGELHEIM ANIMAL HEALTH USA INC., priority 2016, dated 2024):
# Legend:
# [1] = test system: Rhipicephalus microplus ticks; test: Efficacy of injectable formulation against Rhipicephalus (Boophilus) microplus ticks on cattle; type: in vivo; conditions: for Average % Efficacy (Tick Count): vs untreated control
# Method: The efficacy of long-acting injectable compositions of the invention comprising the compounds of formula (Ie) and (S)-Ie, against Rhipicephalus microplus ticks on cattle was determined against an untreated control group. The efficacy of compositions comprising the compounds (Ie) and (S)-e were also compared with injectable compositions comprising afoxolaner (formula Ia, 4-[5-[3-chloro-5-(trifluoromethyl)phenyl]-4,5-dihydro-5-(trifluoromethyl)-3-isoxazolyl]-N-[2-oxo-2-[(2,2,2-trifluoroethyl)amino]ethyl]-1-naphthalanecarboxamide), and comparative compounds of formulae (If) and (S)-If shown below.
# Each compound was formulated in an injectable composition at a concentration of 10% (w/v) in a carrier comprising 8% (w/v) ethanol and Q.S. with polyethylene glycol 400. The racemic compounds afoxolaner and (If) were dosed at 1.0 mg/kg body weight and the (S)-enantiomers ((S)-Ie and (S)-If) were dosed at 0.5 mg/kg body weight. Six healthy head of cattle were used in each study group. Cattle in Group 1 were untreated (control). Cattle in Groups 2, 3, 4, 5 and 6 were treated on Day 0 subcutaneously with injectable compositions comprising the compounds of formula Ie, (S)-If, (S)-Ie, afoxolaner (Ia) and (If), respectively. Several weeks before treatment, cattle were infested three times a week with approximately 2500 Rhipicephalus microplus larvae to establish ongoing infestations. Each animal was challenged by infestation with approximately 5000 R. microplus larvae on Days 7 and 21 and every 14 days thereafter. Ticks dropping from each animal in the previous 24 hours were collected daily and counted from Day 1 until the end of the study.
# [2] = test system: Haematobia irritans (horn fly); test: Efficacy of long-acting injectable composition against Haematobia irritans (horn fly) on cattle; type: in vivo; conditions: naturally infested cattle, 10% (w/v) composition at 0.25 mL/50 kg body weight
# Method: The efficacy of a long-acting injectable composition comprising the compound of formula (S)-Ie against horn fly on cattle was evaluated. Two groups of 15 cattle were selected for the study and randomly assigned to one of two groups. The cattle in Group 1 were untreated and the cattle in Group 2 were treated with a long-acting composition of the invention containing 10% (w/v) of the compound of formula (S)-Ie in a carrier comprising 8% (w/v) ethanol in PEG 400 (QS). The composition was administered to the cattle in Group 2 at a dose of 0.25 mL/50 kg body weight. Each animal was naturally infested with horn flies, and horn fly counts were performed on Days-2, 3, 7, 10, 13, 16, 20, 23, 27, 30, 34, 37, 43, 45 and 48. Tables 2A and 2B below provide the horn fly counts and the % reduction of the treated group relative to the control.
# [3] = injectable composition, compared with afoxolaner, (If) or (S)-If
structure (smiles),measurement,setting,value
O=C(CNC(=O)c1ccc(C2=NO[C@@](c3cc(Cl)c(F)c(C(F)(F)F)c3)(C(F)(F)F)C2)c2ccccc12)NCC(F)(F)F [(S)-Ie],Average % Efficacy (Tick Count),"[1]; Day 5, 0.5 mg/kg subcutaneous on Day 0 ((S)-enantiomers)",66%
same,Average % Efficacy (Tick Count),"[1]; Day 10, 0.5 mg/kg subcutaneous on Day 0 ((S)-enantiomers)",93%
same,Average % Efficacy (Tick Count),"[1]; Day 20, 0.5 mg/kg subcutaneous on Day 0 ((S)-enantiomers)",100%
same,Average % Efficacy (Tick Count),"[1]; Day 30, 0.5 mg/kg subcutaneous on Day 0 ((S)-enantiomers)",100%
same,Average % Efficacy (Tick Count),"[1]; Day 40, 0.5 mg/kg subcutaneous on Day 0 ((S)-enantiomers)",100%
same,Average % Efficacy (Tick Count),"[1]; Day 49, 0.5 mg/kg subcutaneous on Day 0 ((S)-enantiomers)",100%
same,Average % Efficacy (Tick Count),"[1]; Day 55, 0.5 mg/kg subcutaneous on Day 0 ((S)-enantiomers)",100%
same,Average % Efficacy (Tick Count),"[1]; Day 60, 0.5 mg/kg subcutaneous on Day 0 ((S)-enantiomers)",100%
same,Average % Efficacy (Tick Count),"[1]; Day 65, 0.5 mg/kg subcutaneous on Day 0 ((S)-enantiomers)",100%
same,Average % Efficacy (Tick Count),"[1]; Day 70, 0.5 mg/kg subcutaneous on Day 0 ((S)-enantiomers)",100%
same,Average % Efficacy (Tick Count),"[1]; Day 75, 0.5 mg/kg subcutaneous on Day 0 ((S)-enantiomers)",100%
same,Average % Efficacy (Tick Count),"[1]; Day 80, 0.5 mg/kg subcutaneous on Day 0 ((S)-enantiomers)",100%
same,Average % Efficacy (Tick Count),"[1]; Day 85, 0.5 mg/kg subcutaneous on Day 0 ((S)-enantiomers)",90%
same,Average % Efficacy (Tick Count),"[1]; Day 88, 0.5 mg/kg subcutaneous on Day 0 ((S)-enantiomers)",88%
same,Average % Efficacy (Tick Count),"[1]; Day 95, 0.5 mg/kg subcutaneous on Day 0 ((S)-enantiomers)",92%
same,Average % Efficacy (Tick Count),"[1]; Day 100, 0.5 mg/kg subcutaneous on Day 0 ((S)-enantiomers)",88%
same,Average % Efficacy (Tick Count),"[1]; Day 105, 0.5 mg/kg subcutaneous on Day 0 ((S)-enantiomers)",76%
same,Average % Efficacy (Tick Count),"[1]; Day 110, 0.5 mg/kg subcutaneous on Day 0 ((S)-enantiomers)",65%
same,efficacy and duration of activity against Rhipicephalus microplus compared with other isoxazoline compounds,[1]; [3],surprising and unexpected efficacy
same,speed of onset of efficacy against Rhipicephalus microplus compared with other isoxazoline compounds,[1]; [3],faster-acting
same,% Reduction of horn fly counts of the treated group relative to the control,[2]; Day 3,89.5%
same,Arithmetic Mean of Horn Fly Counts,[2]; Day 3,26.7
same,% Reduction of horn fly counts of the treated group relative to the control,[2]; Day 7,74.3%
same,Arithmetic Mean of Horn Fly Counts,[2]; Day 7,35.0
same,% Reduction of horn fly counts of the treated group relative to the control,[2]; Day 10,79.6%
same,Arithmetic Mean of Horn Fly Counts,[2]; Day 10,16.0
same,% Reduction of horn fly counts of the treated group relative to the control,[2]; Day 13,63.3%
same,Arithmetic Mean of Horn Fly Counts,[2]; Day 13,22.0
same,% Reduction of horn fly counts of the treated group relative to the control,[2]; Day 16,57.3%
same,Arithmetic Mean of Horn Fly Counts,[2]; Day 16,44.7
same,% Reduction of horn fly counts of the treated group relative to the control,[2]; Day 20,56.6%
same,Arithmetic Mean of Horn Fly Counts,[2]; Day 20,36.0
same,% Reduction of horn fly counts of the treated group relative to the control,[2]; Day 23,42.5%
same,Arithmetic Mean of Horn Fly Counts,[2]; Day 23,30.7
same,% Reduction of horn fly counts of the treated group relative to the control,[2]; Day 27,61.8%
same,Arithmetic Mean of Horn Fly Counts,[2]; Day 27,22.7
same,% Reduction of horn fly counts of the treated group relative to the control,[2]; Day 30,67.6%
same,Arithmetic Mean of Horn Fly Counts,[2]; Day 30,23.0
same,% Reduction of horn fly counts of the treated group relative to the control,[2]; Day 34,44.8%
same,Arithmetic Mean of Horn Fly Counts,[2]; Day 34,26.3
same,% Reduction of horn fly counts of the treated group relative to the control,[2]; Day 37,61.8%
same,Arithmetic Mean of Horn Fly Counts,[2]; Day 37,28.0
same,% Reduction of horn fly counts of the treated group relative to the control,[2]; Day 43,39.5%
same,Arithmetic Mean of Horn Fly Counts,[2]; Day 43,26.0
same,% Reduction of horn fly counts of the treated group relative to the control,[2]; Day 45,35.5%
same,Arithmetic Mean of Horn Fly Counts,[2]; Day 45,43.0
same,% Reduction of horn fly counts of the treated group relative to the control,[2]; Day 48,31.1%
same,Arithmetic Mean of Horn Fly Counts,[2]; Day 48,30.3
